Assay [1] has as its target T1, recombinant N-terminal GST-tagged human Rho kinase 1 (ROCK1, amino acids 1-535) (Homo sapiens, UniProt Q13464).
T1 construct: ROCK1, amino acids 1-535; purchased Invitrogen Inc. PV-3691
The assay is described as follows: In vitro Rho kinase assay (luciferase-based ATP consumption), ROCK1. The assay is classed as biochemical. The procedure, abridged: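 GST-ROCK1 (aa 1-535) at 0.82 μg/ml with 100 μg/ml S6 peptide and 3 µM ATP in Tris pH 7.5 buffer with MgCl2, CaCl2, EGTA, BSA; compound added after reaction start, 2 h at 30 °C. Remaining ATP read by luciferase luminescence; efficacy as percent of H-1152P positive control.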

Assay [2] concerns the target T2, recombinant N-terminal GST-tagged human Rho kinase 2 (ROCK2, amino acids 1-552) (Homo sapiens, UniProt O75116).
T2 construct: ROCK2, amino acids 1-552; purchased Invitrogen Inc. PV3759
The assay is described as follows: In vitro Rho kinase assay (luciferase-based ATP consumption), ROCK2. The format is biochemical. The procedure, abridged:
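GST-ROCK2 (aa 1-552, 0.82 μg/ml) with 100 μg/ml S6 peptide and 3 µM ATP in Tris pH 7.5 buffer with MgCl2/CaCl2/EGTA/BSA, compound added just after reaction start, 2 h at 30 °C. Remaining ATP read by luciferase luminescence. Efficacy expressed as percentage of H-1152P positive control.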

Where [3] appears, read: recombinant GST-tagged human ROCK1, luciferase-based ATP consumption, read-out: ROCK1 IC50.
Where [4] appears, read: recombinant GST-tagged human ROCK2, luciferase-based ATP consumption, read-out: ROCK2 IC50.

Like-named read-outs stand apart in the source and are kept apart here.

T1 sequence (Q13464 1-535): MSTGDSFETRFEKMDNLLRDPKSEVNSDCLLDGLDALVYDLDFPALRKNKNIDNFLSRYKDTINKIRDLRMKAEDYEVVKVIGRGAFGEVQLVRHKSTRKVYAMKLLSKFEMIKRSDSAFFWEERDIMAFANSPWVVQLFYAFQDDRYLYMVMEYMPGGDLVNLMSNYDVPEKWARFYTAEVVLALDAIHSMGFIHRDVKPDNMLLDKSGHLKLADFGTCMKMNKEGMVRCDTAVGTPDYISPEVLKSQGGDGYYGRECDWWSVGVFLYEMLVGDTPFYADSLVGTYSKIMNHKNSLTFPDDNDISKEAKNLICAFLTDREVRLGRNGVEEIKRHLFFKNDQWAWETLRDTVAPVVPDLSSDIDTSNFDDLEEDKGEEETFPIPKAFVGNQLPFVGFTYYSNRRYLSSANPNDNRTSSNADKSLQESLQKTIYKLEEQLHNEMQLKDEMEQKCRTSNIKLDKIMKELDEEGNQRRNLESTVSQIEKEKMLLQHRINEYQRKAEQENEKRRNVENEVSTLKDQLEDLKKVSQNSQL
T2 sequence (O75116 1-552): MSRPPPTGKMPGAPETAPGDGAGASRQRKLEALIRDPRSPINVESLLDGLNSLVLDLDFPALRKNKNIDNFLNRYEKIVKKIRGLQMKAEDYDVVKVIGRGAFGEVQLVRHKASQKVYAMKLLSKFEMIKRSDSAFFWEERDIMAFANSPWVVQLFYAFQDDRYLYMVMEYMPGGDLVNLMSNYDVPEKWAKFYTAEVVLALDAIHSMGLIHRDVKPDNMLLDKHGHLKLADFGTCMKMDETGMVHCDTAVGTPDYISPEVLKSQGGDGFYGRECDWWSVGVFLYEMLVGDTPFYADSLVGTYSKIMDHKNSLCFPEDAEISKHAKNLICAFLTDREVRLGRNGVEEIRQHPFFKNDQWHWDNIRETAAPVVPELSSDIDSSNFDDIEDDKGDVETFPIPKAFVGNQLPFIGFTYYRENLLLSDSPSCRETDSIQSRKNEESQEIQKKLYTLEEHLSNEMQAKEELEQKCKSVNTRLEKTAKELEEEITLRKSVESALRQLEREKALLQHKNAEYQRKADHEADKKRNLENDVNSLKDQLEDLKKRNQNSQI

Usually IC50 stands for the point on the concentration scale where inhibition reaches its midpoint. Regarding `CC(=O)NCc1ccc2sc(-c3ccnc(N)n3)c(C)c2c1` [Example 95, CC(═O)NCc1ccc2sc(c(C)c2c1)-c3ccnc(N)n3], the IC50 in assay [1] (setting [3]) and in assay [2] (setting [4]) was greater than 5 µM each time.

Take `CCCc1ccc(C(=O)NCc2ccc3sc(-c4ccnc(N)n4)c(C)c3c2)cc1` [Example 171, CCCc1ccc(cc1)C(═O)NCc2ccc3sc(c(C)c3c2)-c4ccnc(N)n4]: the IC50 in assay [1] (setting [3]) and in assay [2] (setting [4]) was greater than 5 µM each time.

Turning to `Cc1c(-c2ccnc(N)n2)sc2ccc(CNC(=O)c3cccs3)cc12` [Example 34, N-((2-(2-Aminopyrimidin-4-yl)-3-methylbenzo[b]thiophen-5-yl)methyl)thiophene-2-carboxamide], the IC50 in assay [1] (setting [3]) and in assay [2] (setting [4]) was less than 5 µM each time.

As for `COc1cc(OC)cc(C(=O)NCc2ccc3sc(-c4ccnc(N)n4)c(C)c3c2)c1` [Example 221, COc1cc(OC)cc(c1)C(═O)NCc2ccc3sc(c(C)c3c2)-c4ccnc(N)n4], the IC50 in assay [1] (setting [3]) is greater than 5 µM; in assay [2] (setting [4]) it was less than 5 µM.

Take `CC(=O)c1cccc(C(=O)NCc2ccc3sc(-c4ccnc(N)n4)c(C)c3c2)c1` [Example 164, CC(═O)c1cccc(c1)C(═O)NCc2ccc3sc(c(C)c3c2)-c4ccnc(N)n4]: the IC50 in assay [1] (setting [3]) was greater than 5 µM; in assay [2] (setting [4]), less than 5 µM.

Regarding `Cc1c(-c2ccnc(N)n2)sc2ccc(CNC(=O)c3cccc(Oc4ccccc4)c3)cc12` [Example 282, Cc1c(sc2ccc(CNC(═O)c3cccc(Oc4ccccc4)c3)cc12)-c5ccnc(N)n5], the IC50 in assay [1] (setting [3]) and in assay [2] (setting [4]) was greater than 5 µM each time.

In the case of `Cc1c(-c2ccnc(N)n2)sc2ccc(CNC(=O)c3cc(Br)ccc3Cl)cc12` [Example 314, Cc1c(sc2ccc(CNC(═O)c3cc(Br)ccc3Cl)cc12)-c4ccnc(N)n4], the IC50 is less than 5 µM in assay [1] (ROCK1 IC50, recombinant GST-tagged human ROCK1, luciferase-based ATP consumption) and less than 5 µM in assay [2] (ROCK2 IC50, recombinant GST-tagged human ROCK2, luciferase-based ATP consumption).

In the case of `Cc1c(-c2ccnc(N)n2)sc2ccc(CNC(=O)c3ccc(Cl)cc3[N+](=O)[O-])cc12` [Example 267, Cc1c(sc2ccc(CNC(═O)c3ccc(Cl)cc3[N+]([O−])═O)cc12)-c4ccnc(N)n4], the IC50 in assay [1] (setting [3]) is greater than 5 µM; in assay [2] (setting [4]) it was less than 5 µM.

As to `COc1cc(C(=O)NCc2ccc3sc(-c4ccnc(N)n4)c(C)c3c2)cc(OC)c1OC` [Example 279, COc1cc(cc(OC)c1OC)C(═O)NCc2ccc3sc(c(C)c3c2)-c4ccnc(N)n4], the IC50 in assay [1] (setting [3]) was greater than 5 µM; in assay [2] (setting [4]), less than 5 µM.

For the compound `Cc1c(-c2ccnc(N)n2)sc2ccc(N)cc12` [Example 72, 4-(5-Amino-3-methylbenzo[b]thiophen-2-yl)pyrimidin-2-amine], the concentration for half-maximal inhibition (IC50) in assay [1] (setting [3]) and in assay [2] (setting [4]) was less than 5 µM throughout.

As to `Cc1c(-c2ccnc(N)n2)sc2ccc(CNC(=O)c3c(F)c(F)c(F)c(F)c3F)cc12` [Example 276, Cc1c(sc2ccc(CNC(═O)c3c(F)c(F)c(F)c(F)c3F)cc12)-c4ccnc(N)n4], the IC50 in assay [1] (setting [3]) and in assay [2] (setting [4]) was less than 5 µM each time.

Take `Cc1c(-c2ccnc(N)n2)sc2ccc(CNC(=O)c3cc(F)ccc3[N+](=O)[O-])cc12` [Example 230, Cc1c(sc2ccc(CNC(═O)c3cc(F)ccc3[N+]([O−])═O)cc12)-c4ccnc(N)n4]: the IC50 in assay [1] (setting [3]) and in assay [2] (setting [4]) was less than 5 µM each time.

Consider `CC(=O)Oc1cccc(C(=O)NCc2ccc3sc(-c4ccnc(N)n4)c(C)c3c2)c1` [Example 210, CC(═O)Oc1cccc(c1)C(═O)NCc2ccc3sc(c(C)c3c2)-c4ccnc(N)n4], for which the IC50 in assay [1] (setting [3]) and in assay [2] (setting [4]) was less than 5 µM throughout.

Consider `Cc1c(-c2ccnc(N)n2)sc2ccc(CNC(=O)CC3Cc4ccccc4C3)cc12` [Example 198, Cc1c(sc2ccc(CNC(═O)CC3Cc4ccccc4C3)cc12)-c5ccnc(N)n5], for which the figures for the IC50 in assay [1] (setting [3]) and in assay [2] (setting [4]) were greater than 5 µM and less than 5 µM, respectively.

As for `CCN(CC)CCNC(=O)c1cccc(Cc2ccc3sc(-c4ccnc(N)n4)c(C)c3c2)c1` [Example 47, 3-((2-(2-Aminopyrimidin-4-yl)-3-methylbenzo[b]thiophen-5-yl)methyl)-N-(2-(diethylamino)ethyl)benzamide], the IC50 in assay [1] (setting [3]) and in assay [2] (setting [4]) was less than 5 µM throughout.

As to `Cc1c(-c2ccnc(N)n2)sc2ccc(CNC(=O)c3cc(C(C)C)cc(C(C)C)c3O)cc12` [Example 298, CC(C)c1cc(C(C)C)c(O)c(c1)C(═O)NCc2ccc3sc(c(C)c3c2)-c4ccnc(N)n4], the IC50 in assay [1] (setting [3]) and in assay [2] (setting [4]) was less than 5 µM throughout.

In the case of `Cc1c(-c2ccnc(N)n2)sc2ccc(CNC(=O)c3cccc(Br)n3)cc12` [Example 270, Cc1c(sc2ccc(CNC(═O)c3cccc(Br)n3)cc12)-c4ccnc(N)n4], the IC50 in assay [1] (setting [3]) and in assay [2] (setting [4]) was less than 5 µM in each case.

As to `Cc1c(-c2ccnc(N)n2)sc2ccc(CN)cc12` [Example 33, 4-(5-(Aminomethyl)-3-methylbenzo[b]thiophen-2-yl)pyrimidin-2-amine], the IC50 in assay [1] (setting [3]) and in assay [2] (setting [4]) was less than 5 µM in each case.

`Cc1c(-c2ccnc(N)n2)sc2ccc(CNC(=O)CCc3cccc(C(F)(F)F)c3)cc12` [Example 294, Cc1c(sc2ccc(CNC(═O)CCc3cccc(c3)C(F)(F)F)cc12)-c4ccnc(N)n4]: the IC50 in assay [1] (setting [3]) and in assay [2] (setting [4]) was less than 5 µM throughout.

Turning to `Cc1c(-c2ccnc(N)n2)sc2ccc(CNC(=O)c3ccc([N+](=O)[O-])c(O)c3)cc12` [Example 226, Cc1c(sc2ccc(CNC(═O)c3ccc(c(O)c3)[N+]([O−])═O)cc12)-c4ccnc(N)n4], the IC50 in assay [1] (setting [3]) is greater than 5 µM; in assay [2] (setting [4]) it was less than 5 µM.

Take `Cc1c(-c2ccnc(N)n2)sc2ccc(CNC(=O)C3CCc4ccccc43)cc12` (centres unmarked) [Example 159, Cc1c(sc2ccc(CNC(═O)C3CCc4ccccc34)cc12)-c5ccnc(N)n5]: the IC50 in assay [1] (setting [3]) and in assay [2] (setting [4]) was less than 5 µM throughout.

As to `Cc1c(-c2ccnc(N)n2)sc2ccc(CNC(=O)c3cccc(Cl)c3[N+](=O)[O-])cc12` [Example 264, Cc1c(sc2ccc(CNC(═O)c3cccc(Cl)c3[N+]([O−])═O)cc12)-c4ccnc(N)n4], the IC50 in assay [1] (setting [3]) is greater than 5 µM; in assay [2] (setting [4]), less than 5 µM.

Take `Cc1c(-c2ccnc(N)n2)sc2ccc(CNC(=O)C(NC(=O)OC(C)(C)C)C(C)C)cc12` (centres unmarked) [Example 292, CC(C)[C](NC(═O)OC(C)(C)C)C(═O)NCc1ccc2sc(c(C)c2c1)-c3ccnc(N)n3]: the IC50 in assay [1] (setting [3]) is less than 5 µM; in assay [2] (setting [4]), greater than 5 µM.

Regarding `COc1ccc2cc(C(C)C(=O)NCc3ccc4sc(-c5ccnc(N)n5)c(C)c4c3)ccc2c1` (centres unmarked) [Example 307, COc1ccc2cc(ccc2c1)[C](C)C(═O)NCc3ccc4sc(c(C)c4c3)-c5ccnc(N)n5], the results for the IC50 in assay [1] (setting [3]) and in assay [2] (setting [4]) were less than 5 µM and greater than 5 µM, respectively.

Take `Cc1cc(C)cc(C(=O)NCc2ccc3sc(-c4ccnc(N)n4)c(C)c3c2)c1` [Example 135, Cc1cc(C)cc(c1)C(═O)NCc2ccc3sc(c(C)c3c2)-c4ccnc(N)n4]: the IC50 in assay [1] (setting [3]) and in assay [2] (setting [4]) was greater than 5 µM in each case.

As for `Cc1cc(C(=O)NCc2ccc3sc(-c4ccnc(N)n4)c(C)c3c2)cc(Cl)n1` [Example 187, Cc1cc(cc(Cl)n1)C(═O)NCc2ccc3sc(c(C)c3c2)-c4ccnc(N)n4], the IC50 in assay [1] (setting [3]) and in assay [2] (setting [4]) was less than 5 µM in each case.

In the case of `Cc1c(-c2ccnc(N)n2)sc2ccc(CNC(=O)c3ccc4ncccc4c3)cc12` [Example 192, Cc1c(sc2ccc(CNC(═O)c3ccc4ncccc4c3)cc12)-c5ccnc(N)n5], the IC50 in assay [1] (setting [3]) was greater than 5 µM; in assay [2] (setting [4]) it was less than 5 µM.

For `Cc1c(-c2ccnc(N)n2)sc2ccc(CNC(=O)C(C)(C)C)cc12` [Example 100, Cc1c(sc2ccc(CNC(═O)C(C)(C)C)cc12)-c3ccnc(N)n3], the IC50 in assay [1] (setting [3]) and in assay [2] (setting [4]) was less than 5 µM in each case.

As to `Cc1c(-c2ccnc(N)n2)sc2ccc(CNC(=O)c3ccc(I)cc3)cc12` [Example 319, Cc1c(sc2ccc(CNC(═O)c3ccc(I)cc3)cc12)-c4ccnc(N)n4], the IC50 was greater than 5 µM in assay [1] (setting [3]) and less than 5 µM in assay [2] (setting [4]).

For the compound `Cc1c(-c2ccnc(N)n2)sc2ccc(Nc3cccc(NC(=O)c4ccc(O)cc4)c3)cc12` [Example 61, N-(3-(2-(2-Aminopyrimidin-4-yl)-3-methylbenzo[b]thiophen-5-ylamino)phenyl)-4-hydroxybenzamide], the IC50 in assay [1] (setting [3]) and in assay [2] (setting [4]) was less than 5 µM each time.

Take `Cc1c(-c2ccnc(N)n2)sc2ccc(Nc3cncc(O)c3)cc12` [Example 68, 5-(2-(2-Aminopyrimidin-4-yl)-3-methylbenzo[b]thiophen-5-ylamino)pyridin-3-ol]: the half-inhibitory concentration (IC50) in assay [1] (setting [3]) and in assay [2] (setting [4]) was less than 5 µM each time.

With `Cc1c(-c2ccnc(N)n2)sc2ccc(CNC(=O)CNC(=O)OC(C)(C)C)cc12` [Example 196, Cc1c(sc2ccc(CNC(═O)CNC(═O)OC(C)(C)C)cc12)-c3ccnc(N)n3], the IC50 in assay [1] (setting [3]) and in assay [2] (setting [4]) was less than 5 µM each time.

For the compound `Cc1ccc(C(=O)NCc2ccc3sc(-c4ccnc(N)n4)c(C)c3c2)cc1Br` [Example 287, Cc1ccc(cc1Br)C(═O)NCc2ccc3sc(c(C)c3c2)-c4ccnc(N)n4], the IC50 in assay [1] (setting [3]) is greater than 5 µM; in assay [2] (setting [4]), less than 5 µM.

As to `COc1cccc(CCc2ccc3sc(-c4ccnc(N)n4)c(C)c3c2)c1` [Example 90, 4-(5-(3-Methoxyphenethyl)-3-methylbenzo[b]thiophen-2-yl)pyrimidin-2-amine], the IC50 in assay [1] (setting [3]) and in assay [2] (setting [4]) was greater than 5 µM in each case.

For the origin of these results see US20080021026A1, “BENZOTHIOPHENE INHIBITORS OF RHO KINASE” (priority 2006, published 2008).
